Patent US3950393A, “Aminobenzyl-amides and salts thereof” (Boehringer Ingelheim GmbH, priority 1973, dated 1976)
Counter-ions that a name gives are not always drawn. Like-named read-outs stand apart in the source and are kept apart here.

Tests used:
guinea pigs = assay: Secretolytic (expectorant) effect in anesthetized guinea pigs after oral application; type: in vivo; conditions: 8 mgm/kg oral, within 2 hours, 6-8 animals
Protocol: (§1) The expectorant activity was tested on anesthetized rabbits and guinea pigs after oral application of 8 mgm/kg of the test compound to 6-8 animals. The increase in secretion within 2 hours was calculated from the amounts of secretion before and after application of the substance [see Perry and Boyd in Pharmakol. exp. Therap. 73, 65 (1941)].

white mice = assay: in vivo
Protocol: (§2) The acute toxicity of the test compounds was determined after a single application of 1000 or 2000 mgm/kg p.o., respectively, to 5 white mice each.

ulcers = assay: Anti-ulcerogenic activity, acetic acid stomach ulcers, method of K. Takagi et al; type: in vivo, female rats; conditions: three weeks with food
Protocol: The inhibiting effect of the test compounds on the formation of ulcers was determined according to the method of K. Takagi et al [Jap. J. Pharmac. 19, 418 (1969)]. The abdominal cavity of anesthetized female rats having a body weight from 220 to 250 gm was opened and the stomach was exposed. Then, 0.05 ml of an aqueous 5% acetic acid solution was injected between the muscularis mucosae and submucosa of the stomach. Thereafter, the abdominal cavity was closed again. The ulcers formed in the mucosa after 3 to 5 days were treated for three weeks by admixing the test compound in question with the food at dosage levels of 50 and 100 mgm/kg (6 animals/dose). The control animals were fed with the pulverized food only.
After treatment for three weeks the animals were killed, the stomach was removed, and the size of the ulcers was determined by measurement of their length and width. The anti-ulcerogenic activity of the test compound was determined by the size of the ulcers comparing with the control values (100%): […]

cats = assay: Circulatory effect in cats under chloralose-urethane anesthesia after intravenous application; type: in vivo; conditions: 2, 4 and 8 mgm/kg intravenous, 3 animals per dose
Protocol: The circulatory effect in cats was determined under chloralose-urethane anesthesia after intravenous application of 2,4 and 8 mgm/kg of the test compound (3 animals per dose).

in vivo = conditions: mouse, in vivo, po
Protocol: as §2

rabbits = assay: Secretolytic (expectorant) effect in anesthetized rabbits after oral application; type: in vivo; conditions: 8 mgm/kg oral, within 2 hours, 6-8 animals
Protocol: as §1

[1] = single application, 5 white mice, read-out: Acute toxicity

Molecule | Increase in secretion (guinea pigs) [%] | animals died (white mice; single 1000 mgm/kg p.o.) | reduction of the ulcers compared with control values (ulcers; peroral dosage of 50 mgm/kg) [%] | reduction of the ulcers compared with control values (ulcers; peroral dosage of 100 mgm/kg) [%] | Circulatory effect (cats) | animals died (white mice; single 2000 mgm/kg p.o.) | LD50 (in vivo; [1]) [mg/kg] | Increase in secretion (rabbits) [%] | LD50 (in vivo) [mg/kg]
2-amino-3-bromo-N-cyclohexyl-N-ethyl-3-fluoro-benzylamine hydrochloride | 100 | 0 out of 5 | – | – | – | – | – | – | –
CCOC(=O)c1cc(Br)c(N)c(CN(CC)CC)c1.Cl [A, 2-amino-3-bromo-5-carbethoxy-N,N-diethyl-benzylamine hydrochloride] | 90 | – | 52 | 79 | no change | 0 out of 5 | > 2000 | – | –
CCN(Cc1cc(C(=O)O)cc(Br)c1N)C1CCCCC1.Cl [B, 2-amino-3-bromo-5-carboxy-N-cyclohexyl-N-ethyl-benzylamine hydrochloride] | 81 | 0 out of 5 | – | – | no change | – | > 1000 | – | –
Cc1cc(Br)cc(CN2CCCCCC2)c1N [D, N-(2-amino-5-bromo-3-methyl-benzyl)-hexamethyleneamine dihydrochloride] | – | 0 out of 5 | – | – | – | – | – | 72 | > 1000
CC(C)(C)c1cc(N)c(CN2CCOCC2)cc1Br.Cl.Cl [E, N-(2-amino-5-bromo-4-tert.butyl-benzyl)-morpholine dihydrochloride] | – | 0 out of 5 | – | – | – | – | > 1000 | 77 | –
CC(=O)c1cc(Br)c(N)c(CN(C)C)c1 [F, 5-acetyl-2-amino-3-bromo-N,N-dimethyl-benzylamine] | – | 2 out of 5 | – | – | – | – | ~1000 | 75 | –
CN(C)Cc1cc(F)cc(Br)c1N.Cl [G, 2-amino-3-bromo-N,N-dimethyl-5-fluoro-benzylamine hydrochloride] | 84 | 0 out of 5 | – | – | – | – | > 1000 | – | –
